Results taken from patent US20080051348A1, “TREATMENT OF INFECTIONS AND OTHER DISORDERS” (RegeneRx Biopharmaceuticals, Inc., priority 2002, published 2008).
In brackets after ≈: the same amount, converted by molar mass.

Experiments:
Assay type in all cases: cell-based
[1] = tested on: Pseudomonas aeruginosa; assay: Antimicrobial assay, Example 1
Procedure: The purpose of this study was to study the antimicrobial activity of peptides against common pathogens in vitro. Antimicrobial assays were performed to assess peptide activity against Pseudomonas aeruginosa. […]

[2] = tested on: Pseudomonas aeruginosa (PA)
Procedure: (§1) Antimicrobial assays were performed to assess peptide activity against Pseudomonas aeruginosa (PA), Staphylococcus aureus ([…]), and Staphylococcus epidermidis (SE).

[3] = tested on: Staphylococcus aureus; assay: Antimicrobial assay, Example 2
Procedure: as §1

[4] = tested on: Staphylococcus epidermidis (SE); assay: Antimicrobial assay, Example 2
Procedure: as §1

[5] = tested on: Staphylococcus aureus; assay: Antimicrobial activity, Example 3
[6] = tested on: Escherichia coli; assay: Antimicrobial activity, Example 3

- EC50 against Pseudomonas aeruginosa ([1]; in vitro): 26.5 ± 1.6 µg/mL (≈ 5.34 µM)
- EC50 against PA [2]: 18.1 ± 1.7 µg/mL (≈ 3.65 µM)
SMILES: CC[C@H](C)[C@H](NC(=O)[C@H](CCC(=O)O)NC(=O)[C@H](C)NC(=O)[C@H](CCSC)NC(=O)[C@H](CC(=O)O)NC(=O)[C@@H]1CCCN1C(=O)[C@H](CCCCN)NC(=O)[C@H](CC(=O)O)NC(=O)[C@H](CO)NC(C)=O)C(=O)N[C@@H](CCC(=O)O)C(=O)N[C@@H](CCCCN)C(=O)N[C@@H](Cc1ccccc1)C(=O)N[C@@H](CC(=O)O)C(=O)N[C@@H](CCCCN)C(=O)N[C@@H](CO)C(=O)N[C@@H](CCCCN)C(=O)N[C@@H](CC(C)C)C(=O)N[C@@H](CCCCN)C(=O)N[C@@H](CCCCN)C(=O)N[C@H](C(=O)N[C@@H](CCC(=O)O)C(=O)N[C@H](C(=O)N[C@@H](CCC(N)=O)C(=O)N[C@@H](CCC(=O)O)C(=O)N[C@@H](CCCCN)C(=O)N[C@@H](CC(N)=O)C(=O)N1CCC[C@H]1C(=O)N[C@@H](CC(C)C)C(=O)N1CCC[C@H]1C(=O)N[C@@H](CO)C(=O)N[C@@H](CCCCN)C(=O)N[C@@H](CCC(=O)O)C(=O)N[C@H](C(=O)N[C@H](C(=O)N[C@@H](CCC(=O)O)C(=O)N[C@@H](CCC(N)=O)C(=O)N[C@@H](CCC(=O)O)C(=O)N[C@@H](CCCCN)C(=O)N[C@@H](CCC(N)=O)C(=O)N[C@@H](C)C(=O)NCC(=O)N[C@@H](CCC(=O)O)C(=O)N[C@@H](CO)C(=O)O)[C@@H](C)CC)[C@@H](C)O)[C@@H](C)O)[C@@H](C)O [Tβ4, thymosin β4]
- lowest dose where activity and/or protection was demonstrated ([1]; against Pseudomonas aeruginosa): 0.5 to 1 µg/mL
- effectiveness against staphylococcal strains [3]: weakly effective
- effectiveness against staphylococcal strains [4]: weakly effective
- concentrations showing antimicrobial activity [5]: 5-20 n mol/ml
- concentrations showing increasingly dose-dependent activity [5]: 50-200 n mol/ml
- concentrations showing antimicrobial activity [6]: 5-20 n mol/ml
- concentrations showing increasingly dose-dependent activity [6]: 50-200 n mol/ml
